Reference: patent US10730825B2, “Methods for the treatment of diabetic retinopathy and other ophthalmic diseases” (Acucela Inc., priority 2012, dated 2020)

How the values were obtained:
[1] = tested on: retinal neovascularization; assay: Retinal neovascularization in mouse model of oxygen-induced retinopathy (OIR); conditions: OIR mice; for Retinal neovascular area reduced: 4 days
Procedure: Pups were euthanized on P17, when neovascularization was maximal and eyes were removed for analysis.
Areas of retinal neovascularization were visualized with isoelectin staining of flatmount preparations and quantified with the lasso tool in Adobe Photoshop; total area of neovascularization indicated the sum of individual areas across the retina, and % neovascularization was relative to the total area of the retina^4.
Statistical analyses were performed using GraphPad Prism software.

VEGF = VEGF up-regulation caused by hypoxic conditions; assay type: in vivo; conditions: for VEGF mRNA levels: compared to vehicle control
Procedure: FIG. 8 depicts a protocol used to test if ACU-4935 reduced VEGF up-regulation caused by hypoxic conditions. Briefly, animals were adapted for dark for 16 hours, then dosed with ACU-4935. Animals were photobleached for 10 minutes with 50000 Lux 2 hours after being dosed, followed by a 2 hour recovery in the dark. Hypoxia was induced with 6% O2 for 6 hours. A portion of the animals were euthanized and samples were collected at time 0. Another portion of the animals were returned to the dark for 2 more hours prior to being euthanized and sample collection.
Samples were tested for VEGF protein (FIG. 9) and mRNA expression (FIG. 10).

visual cycle isomerase [2] = target: T1, visual cycle isomerase (Homo sapiens, UniProt Q16518); assay: in vitro isomerase activity; assay type: biochemical
T1 sequence (Q16518 1-533): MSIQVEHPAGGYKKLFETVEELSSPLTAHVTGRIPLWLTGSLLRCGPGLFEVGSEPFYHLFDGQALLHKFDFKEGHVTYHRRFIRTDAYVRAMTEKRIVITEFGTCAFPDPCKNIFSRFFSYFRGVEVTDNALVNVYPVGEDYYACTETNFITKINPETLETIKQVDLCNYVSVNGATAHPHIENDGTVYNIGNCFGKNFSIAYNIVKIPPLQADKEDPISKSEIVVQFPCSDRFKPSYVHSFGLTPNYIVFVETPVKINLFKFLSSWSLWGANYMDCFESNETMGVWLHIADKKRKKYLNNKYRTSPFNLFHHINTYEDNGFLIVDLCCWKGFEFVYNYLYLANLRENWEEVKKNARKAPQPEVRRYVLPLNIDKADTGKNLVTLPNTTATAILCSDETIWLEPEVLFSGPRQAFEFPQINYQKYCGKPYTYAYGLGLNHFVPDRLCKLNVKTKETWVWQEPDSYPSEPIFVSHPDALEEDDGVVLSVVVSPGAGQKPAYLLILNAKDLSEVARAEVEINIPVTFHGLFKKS

visual cycle isomerase [3] = target: T2, visual cycle isomerase (Mus musculus, UniProt Q91ZQ5); assay: in vivo isomerase assay single dose, mice
T2 sequence (Q91ZQ5 1-533): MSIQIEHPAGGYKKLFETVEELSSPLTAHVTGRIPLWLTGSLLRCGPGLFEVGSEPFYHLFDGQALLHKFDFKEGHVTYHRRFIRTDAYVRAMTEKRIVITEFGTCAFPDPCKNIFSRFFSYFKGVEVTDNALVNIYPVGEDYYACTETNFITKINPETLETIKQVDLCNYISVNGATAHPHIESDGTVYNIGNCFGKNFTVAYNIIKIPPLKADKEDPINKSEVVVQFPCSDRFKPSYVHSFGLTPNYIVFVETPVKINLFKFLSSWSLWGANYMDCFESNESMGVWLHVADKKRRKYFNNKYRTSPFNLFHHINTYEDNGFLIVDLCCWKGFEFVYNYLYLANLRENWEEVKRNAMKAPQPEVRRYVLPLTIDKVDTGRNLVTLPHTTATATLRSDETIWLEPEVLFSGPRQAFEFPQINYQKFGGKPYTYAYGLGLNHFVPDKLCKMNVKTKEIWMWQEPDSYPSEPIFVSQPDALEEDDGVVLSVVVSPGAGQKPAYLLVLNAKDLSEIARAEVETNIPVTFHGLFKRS

[4] = tested on: retinal cationic activity (Mn2+ uptake); assay: Manganese-enhanced MRI (MEMRI) single dose study; conditions: rats, Mn2+ uptake by MRI
Procedure: Rats are to be maintained in regular laboratory lighting (12 hours light, 12 hours dark) prior to start of experimental period—light exposure, bleaching, dark adaption will vary by cohort (see below).
Animals are to be dosed by oral gavage according to group assignment below. Rats are to be weighed each week of the experimental period.
Dilate pupils by applying 1 drop of tropicamide (0.5%) 10-30 minutes before photobleaching. Photobleach animals for 10 minutes by exposure to 5000 lux 4 hours before MRI imaging.
Inject rats immediately after bleach, 4 hours prior to the start of imaging session. MEMRI signal reflects state of expression of activity-dependent channels during experimental period.
Keep rats in dark (IOP room) during the 4 hours between injection and transport to the imaging center for practice experiments for all groups except group 4. Keep animals from group 4 exposed to light during 4 hours between MnCl2 injection and MRI imaging. Otherwise follow light-dark-bleaching cycle described for each cohort.
A snapshot FLASH inversion recovery (IR) imaging sequence is used to acquire a single imaging slice bisecting the retina in the axial and sagittal planes, using a 12 mm inner diameter linear surface coil. […] The approximate scan time per animal is ˜16 minutes. […]

## CN(C)C[C@@H]1CCn2cc(c3ccccc32)C2=C(C(=O)NC2=O)c2cn(c3ccccc23)CCO1 [Ruboxistaurin, reference compound]
[1]; 10 mg/kg/day intraperitoneal, positive control
  Retinal neovascular area reduced: 29%

## CCCC(CCC)COc1cccc([C@H](O)CCN)c1 [ACU-4935, (R)-3-amino-1-(3-(2-propylpentyloxy)phenyl)propan-1-ol]
VEGF; 2 hours post-hypoxia
  VEGF mRNA levels: slightly increased
VEGF; after 6% O2 for 6 hours, vs vehicle
  VEGF protein expression: Slight differences
VEGF; time 0 after hypoxia
  VEGF mRNA levels: decreased
Visual cycle isomerase [2]
  IC50: 5.2 nM
Visual cycle isomerase [3]
  ED50: 0.4 µg/kg
[1]; 0.3 mg/kg/day intraperitoneal, vs vehicle
  Retinal neovascular area reduced: 23%
[1]
  Retinal neovascular area compared to treatment with vehicle: significantly reduced

## CC(=O)NCC=C(C)C=CC=C(C)C=CC1=C(C)CCCC1(C)C [Retinyl acetamide]
[4]
  Retinal behaviour after bleach and dark adaptation (expectation): behave as if they were light adapted
